Experiments:
[1] = target: T1, biotinylated KRAS protein containing G12C/C51S/C80L/C118S mutations (SEQ ID NO: 3) (Homo sapiens, UniProt P01116, C118S/C51S/C80L/G12C); assay: Test Example 4: SOS-catalyzed nucleotide exchange assay (TR-FRET); type: biochemical; conditions: 60-minute incubation with compound, then SOS and GTP, read-out: GNE IC50
T1 construct: biotin acceptor peptide (Avi-type, […]
Description: Test Example 4: Procedure for SOS-Catalyzed Nucleotide Exchange Assay
The SOS-catalyzed nucleotide exchange assay utilizes a preformed complex of recombinant biotinylated KRAS protein containing G12C/C51S/C80L/C118S mutations (SEQ ID NO: 3) (referred to as Biotinylated KRAS G12C protein hereafter), Bodipy-GDP, and Terbium-streptavidin. Compounds are added to this complex and then after a 60-minute incubation time the mixture is treated with SOS and unlabeled GTP. Small molecule inhibitors stabilize the Bodipy-GDP complex whereas the untreated protein rapidly exchanges Bodipy-GDP for unlabeled GTP resulting in reduced TR-FRET signal.
Biotinylated KRAS G12C protein is diluted to 2 μM in an EDTA buffer (20 mM HEPES, 50 mM sodium chloride, 10 mM EDTA, and 0.01% Tween) and incubated at room temperature for one hour. This mixture is then further diluted to 90 nM in an assay buffer (20 mM HEPES, 150 mM sodium chloride, 10 mM magnesium chloride, and 0.005% Tween) containing 15 nM of Terbium-Streptavidin (Invitrogen, catalog #PV3577) and 900 nM of Bodipy-GDP (Invitrogen, G22360) and incubated at room temperature for six hours. This solution is referred to as Biotinylated KRAS G12C stock solution and is then diluted to 9 nM in assay buffer to give the KRAS G12C assay solution.
Each test compound (10 mM stock in DMSO) is diluted in DMSO to make a 10-point, 3-fold dilution series in a 384-well low dead volume microplate (Labcyte, catalog #LP-0200). Once titrations are made, 10 nL of the diluted compounds is acoustically dispensed into a 384-well plate (Corning, catalog #3820) using an Echo 550 (Labcyte).
Each well receives 6 μL of Biotinylated KRAS G12C assay solution using a BioRAPTR (Beckman Coulter) and is incubated at room temperature for 60 minutes in a humidified chamber. Each well then receives 3 μL of 120 nM recombinant human SOS protein and 9 mM GTP (Sigma, G8877) in assay buffer and is incubated at room temperature for 60 minutes in a humidified chamber.
The time-resolved fluorescence resonance energy transfer signal of both plates is measured on an Envision (PerkinElmer) plate reader: Excitation filter=340 nm; emission 1=495 nm; emission 2=520 nm; dichroic mirror=D400/D505; delay time=100 μs. The signal of each well is determined as the ratio of the emission at 520 nm to that at 495 nm. Percent effect of each well is determined after normalization to control wells containing DMSO (no effect) or a saturating concentration of inhibitor (max effect). The apparent effect as a function of compound concentration is fit to a four-parameter logistic equation.

[2] = target: T2, Recombinant KRAS G12C mutant protein (amino acids 1-169, SEQ ID NO: 1) (Homo sapiens, UniProt P01116, G12C); assay: Test Example 1: inhibitory activity on KRAS G12C nucleotide (GDP-GTP) exchange reaction in vitro; type: biochemical; conditions: BODIPY FL GDP-bound KRAS G12C incubated with compound at 25° C. for 1 hour, then SOS1 and GMPPNP, read-out: GNE IC50
T2 construct: His6 (N); TEV protease site (ENLYFQG; named from own knowledge) (N); made in house; host or cells: E. coli
Description: Test Example 1: Evaluation of inhibitory activity of compounds on KRAS G12C nucleotide (GDP-GTP) exchange reaction in vitro
Recombinant KRAS G12C mutant protein (amino acids 1-169, SEQ ID NO: 1) and cleaved recombinant SOS1 (amino acids 564-1049, SEQ ID NO:2) proteins were expressed in E. coli and purified by affinity chromatography.
To prepare BODIPY FL GDP-bound KRAS G12C protein, 50 μM KRAS G12C protein was incubated with 0.5 mM BODIPY FL GDP in a loading buffer (20 mM Tris-HCl (pH 7.5), 50 mM NaCl, 1 mM DTT and 2.5 mM EDTA) for 1 hour on ice. After the incubation, MgCl2 was added to a final concentration of 10 mM, followed by incubation at room temperature for 30 minutes. The mixture was allowed to pass through a NAP-5 column to remove free nucleotides and purified BODIPY FL GDP-bound KRAS G12C protein was used for compound evaluation.
For the measurement of the inhibitory activity of compounds on GDP-GTP exchange rate of recombinant KRAS G12C, BODIPY FL GDP-bound KRAS G12C protein was incubated with various concentrations of compound in a reaction buffer (20 mM Tris-HCl (pH 7.5), 100 mM NaCl, 1 mM MgCl2, 2 mM DTT, 0.1% Tween 20) at 25° C. for 1 hour. After the incubation, recombinant SOS1 and Guanosine-5′-[(β,γ)-imido]triphosphate, Tetralithium salt (GMPPNP) (Jena Bioscience GmbH) were added and incubated at room temperature for 30 minutes to proceed SOS1-dependent GDP-GTP exchange reaction on KRAS G12C. Replacement of BODIPY FL GDP by GMPPNP was measured by calculating the ratio of fluorescence intensities of BODIPY FL before and after the exchange reaction. Inhibition % was calculated by setting the fluorescence ratio from the reaction without test compound (DMSO control) and the fluorescence ratio from the reaction without SOS1 and GMPPNP as 0% and 100% inhibition, respectively. IC50 values were calculated from dose titration curve using curve fitting by XLfit software (IDBS).

[3] = target: T3, interaction between KRAS G12C and cRAF-RBD (Homo sapiens, UniProt P01116, G12C); assay: Test Example 2: inhibitory activity on interaction between KRAS G12C and cRAF (Alpha technology); type: binding; conditions: GMPPNP-bound KRAS G12C incubated with compound at 25° C. for 1 hour, then cRAF-RBD
T3 construct: TEV protease site (ENLYFQG); made in house; host or cells: E. coli
Description: Test Example 2: Evaluation of Inhibitory Activity of Compounds on Interaction Between KRAS G12C and cRAF (In Vitro)
Interaction between recombinant KRAS G12C mutant protein (SEQ ID NO: 1) and cRAF RAS-binding domain (cRAF-RBD, amino acids 50-132, Jena Biosciences GmbH) was measured using Alpha technology (PerkinElmer Inc.).
Recombinant KRAS G12C protein with an N-terminal His-tag was expressed in E. coli and purified by affinity chromatography. To prepare GTP-bound form and GDP-bound form of KRAS G12C protein, 50 μM KRAS G12C protein was incubated with 1 mM GMPPNP (Jena Bioscience GmbH) and 1 mM GDP, respectively, in a loading buffer (20 mM Tris-HCl (pH 7.5), 50 mM NaCl, 1 mM DTT and 2.5 mM EDTA) for 1 hour on ice. After the incubation, MgCl2 was added to a final concentration of 10 mM, followed by incubation at room temperature for 30 minutes. The mixture was allowed to pass through a NAP-5 column to remove free nucleotides and purified, and the resultant nucleotide-bound KRAS G12C protein was used for compound evaluation.
For the measurement of the inhibitory activity of compounds on interaction between KRAS G12C and cRAF-RBD, GMPPNP-bound KRAS G12C protein was incubated with various concentrations of compound in a reaction buffer (20 mM Tris-HCl (pH 7.5), 100 mM NaCl, 1 mM MgCl2, 1 mM TCEP, 0.1% Tween 20) at 25° C. for 1 hour. After the incubation, recombinant cRAF-RBD and Alpha detection reagents were added and incubated at room temperature for 1.5 hours for binding. Interaction of KRAS G12C and cRAF-RBD was monitored by measuring Alpha signal. Inhibition % was calculated using the signal from the reaction without test compound (DMSO control) as 0% inhibition and the signal from the reaction using GDP-bound KRAS G12C in place of GMPPNP-bound KRAS G12C as 100% inhibition. IC50 values were calculated from dose titration curve using curve fitting by XLfit software (IDBS).

MIA PaCa-2 cells = assay: Test Example 3: growth inhibition activity on KRAS-G12C mutant cell line (MIA PaCa-2); type: cell-based; conditions: Homo sapiens, 72 h, MIA PaCa-2, 3-day culture, CellTiter-Glo 3D, read-out: CTX MiaPaCa IC50
Description: Test Example 3: Assay of Growth Inhibition Activity on KRAS-G12C Mutant Cell Line (MIA PaCa-2) (In Vitro)
MIA PaCa-2 cells (provided by Sumitomo Dainippon Pharma Co., Ltd.), which are a KRAS-G12C mutant human pancreas cancer cell line, were suspended in a 10% fetal bovine serum-containing RPMI1640 medium (manufactured by Fujifilm Wako Pure Chemical Corporation.). The cell suspension was seeded into each well of a 384-well U bottom microplate and cultured in an incubator containing 5% CO2 gas at 37° C. for 1 day. The compounds obtained in the Examples section were used as test compounds and were dissolved in DMSO, respectively, and each test compound was diluted with DMSO to give a concentration 500 times the final concentration. The resultant solution of the test compound in DMSO was diluted with the medium used for suspending cells and added to each well of the cell-culture plate to give a DMSO final concentration of 0.2%, followed by culture in an incubator containing 5% CO2 gas at 37° C. for another 3 days. The cell count after 3-day culture in the presence of the test compound was measured using CellTiter-Glo 3D Reagent (manufactured by Promega Corporation). To all cells were added with CellTiter-Glo 3D Reagent and mixed for 10 minutes. 30 minutes after mixing, luminescence was measured by a plate reader. The growth inhibition rate was calculated from the following equation, and the concentration of the test compound at which 50% inhibition was achieved (IC50 (nM)) was determined.
[formula] • T: the emission intensity in a well into which a test compound was added. • C: the emission intensity in a well into which a test compound was not added.

T2 sequence (P01116 with tags, fused parts or gaps isoform P01116-2 G12C): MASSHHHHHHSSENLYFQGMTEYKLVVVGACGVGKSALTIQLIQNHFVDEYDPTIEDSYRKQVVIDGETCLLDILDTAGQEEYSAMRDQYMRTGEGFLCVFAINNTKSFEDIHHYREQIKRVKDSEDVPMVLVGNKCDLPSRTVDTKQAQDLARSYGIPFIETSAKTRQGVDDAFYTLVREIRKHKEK
T3 sequence (P01116 with tags, fused parts or gaps isoform P01116-2 G12C): as above
T1 sequence (P01116 with tags, fused parts or gaps isoform P01116-2 G12C/C51S/C80L/C118S): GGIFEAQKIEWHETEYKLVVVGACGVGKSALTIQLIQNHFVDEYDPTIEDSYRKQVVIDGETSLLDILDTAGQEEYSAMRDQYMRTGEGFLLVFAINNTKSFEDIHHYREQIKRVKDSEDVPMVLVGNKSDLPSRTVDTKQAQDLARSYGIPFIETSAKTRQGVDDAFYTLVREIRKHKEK

| Compound | IC50 [1] [nM] | IC50 [2] [nM] | IC50 [3] [nM] | IC50 (MIA PaCa-2 cells) [nM] |
| --- | --- | --- | --- | --- |
| C#Cc1cccc2cccc(C3Cc4nc(OCC56CCCN5CC(F)C6)nc(N5CCN(C(=O)C=CCN6CCC(OC)CC6)C(CC#N)C5)c4CO3)c12 (single isomer, unassigned) [Example 25a] | 142 |  |  |  |
| C#Cc1cccc2cc(O)cc([C@@H]3Cc4nc(OCC5(C(=O)N(C)C)CC5)nc(N5CCN(C(=O)/C=C/CN6CCC(OC)CC6)[C@@H](CC#N)C5)c4CO3)c12 [Example 18, 1-((((S)-4-((S)-3-(cyano-methyl)-4-((E)-4-(4-meth-oxypiperidin-1-yl)but-2-enoyl)piperazin-1-yl)-7-(8-ethynyl-3-hydroxynaph-thalen-1-yl)-7,8-dihydro-5H-pyrano[4,3-d]pyrimidin-2-yl)oxy)methyl)-N,N-dimethylcyclopropane-1-carboxamide] |  | 58.7 | > 6670 | 4460 |
| C#Cc1cccc2cc(O)cc(C3Cc4nc(OC[C@@H]5CCCN5C)nc(N5CCN(C(=O)/C=C/CN6CCC(OC)CC6)[C@@H](CO)C5)c4CO3)c12 (stereo partly drawn) [Example 19, (E)-1-((2R)-4-(7-(8-ethynyl-3-hydroxynaphthalen-1-yl)-2-(((S)-1-methylpyrrolidin-2-yl)methoxy)-7,8-dihydro-5H-pyrano[4,3-d]pyrimidin-4-yl)-2-(hydroxymethyl)-piperazin-1-yl)-4-(4-meth-oxypiperidin-1-yl)but-2-en-1-one] |  | 46.7 | 3550 | 8250 |
| COC1CCN(C/C=C/C(=O)N2CCN(c3nc(OCC4(CN5CCOCC5)CC4)nc4c3COC3(Cc5ccccc5C3)C4)C[C@@H]2CC#N)CC1 [Example 20, (S,E)-2-(1-(4-(4-methoxypiperidin-1-yl)but-2-enoyl)-4-(2′-((1-(morpholinomethyl)cyclopropyl)methoxy)-1,3,5′,8′-tetrahydrospiro[indene-2,7′-pyrano[4,3-d]pyrimidin]-4′-yl)piperazin-2-yl)acetonitrile] |  | 174 | > 6670 | 3350 |
| COC1CCN(C/C=C/C(=O)N2CCN(c3nc(OCC4(CN5CCOCC5)CC4)nc4c3COC3(CCc5cccc(Br)c53)C4)C[C@@H]2CC#N)CC1 (stereo partly drawn) [Example 21, 2-((2S)-4-(7-bromo-2′-((1-(morpholinomethyl)cyclopropyl)methoxy)-2,3,5′,8′-tetrahydrospiro[indene-1,7′-pyrano[4,3-d]pyrimidin]-4′-yl)-1-((E)-4-(4-methoxypiperidin-1-yl)but-2-enoyl)piperazin-2-yl)acetonitrile] |  | 287 | > 6670 | 1130 |

— US20240417408A1, “SMALL MOLECULE INHIBITORS OF KRAS G12C MUTANT” (MERCK SHARP & DOHME CORP., priority 2021, published 2024)
